Test results as given in Sander's compilation of Henry's law constants (doi:10.1021/es970763v).

Assay: Henry solubility constant Hcp at 298.15 K (mol/(m3 Pa))
Conditions: reference: Welke et al. (1998)

Compound | Henry solubility constant Hcp
CC(Cl)CCl (stereo not drawn) [1,2-dichloropropane] | 0.0055
Cc1ccccc1C [1,2-dimethylbenzene] | 0.0022
C=C(C)C1CC=C(C)CC1 (stereo not drawn) [1-methyl-4-(1-methylethenyl)-cyclohexene] | 0.00024
CCC[N+](=O)[O-] [1-nitropropane] | 0.16
C=CC#N [2-propenenitrile] | 0.031
C=CCCl [3-chloro-1-propene] | 0.0037
CC(=O)CC(C)C [4-methyl-2-pentanone] | 0.047
ClCC1CO1 (stereo not drawn) [(chloromethyl)-oxirane] | 0.29
c1ccccc1 [benzene] | 0.0016
CCCCOC(C)=O [butyl ethanoate] | 0.027
Clc1ccccc1 [chlorobenzene] | 0.0027
ClCCl [dichloromethane] | 3.7
CC#N [ethanenitrile] | 0.34
C=Cc1ccccc1 [ethenylbenzene] | 0.0025
CCOC(C)=O [ethyl ethanoate] | 0.034
Cc1ccccc1 [methylbenzene] | 0.0014
CC(C)=O [propanone] | 0.096
CCCOC(C)=O [propyl ethanoate] | 0.037
